Target: T1, Human Cav2.2 channels (Homo sapiens, UniProt Q00975)
T1 construct: expressed in transfected cells
Experiment: Fluorescent assay for Cav2.2 channels using potassium depolarization to initiate channel opening
Type: cell-based
Settings: for IC50: 30 mM K (block of open and inactivated channels), read-out: Cav 2.2 Activity IC50 at 30 mM K; for inhibition at 10 µM: read-out: Cav 2.2 Activity % Inh at 10 μM; for inhibition at 30 µM: read-out: Cav 2.2 Activity % Inh at 30 μM
From the text: Human Cav2.2 channels were stably expressed in HEK293 cells along with alpha2-delta and beta subunits of voltage-gated calcium channels. An inwardly rectifying potassium channel (Kir2.3) was also expressed in these cells to allow more precise control of the cell membrane potential by extracellular potassium concentration. At low bath potassium concentration, the membrane potential is relatively negative, and is depolarized as the bath potassium concentration is raised. In this way, the bath potassium concentration can be used to regulate the voltage-dependent conformations of the channels. […] After the incubation period, Cav2.2 channel opening is triggered by addition of higher concentration of potassium (70 mM final concentration) to further depolarize the cell. The degree of state-dependent block can be estimated from the inhibitory potency of compounds after incubation in different potassium concentrations.
Calcium influx through Cav2.2 channels is determined using a calcium sensitive fluorescent dye in combination with a fluorescent plate reader. Fluorescent changes were measured with either a VIPR (Aurora Instruments) or FLIPR (Molecular Devices) plate reader.
• 1. Seed cells in Poly-D-Lysine Coated 96 or 384-well plate and keep in a 37° C.-10% CO2 incubator overnight • 2. […] Incubate in the dark at 25° C. for 60-70 min • 5. Remove dye, wash cells with 0.1 mL (96-well plate) or 0.06 mL (384-well plate) of 4, 12, 25, or 30 mM Potassium Pre-polarization Buffer (PPB) • 6. […] Incubate in the dark at 25° C. for 30 min • 8. Read cell plate on VIPR instrument, Excitation=480 nm, Emission=535 nm • 9. With VIPR continuously reading, add 0.1 mL (96-well plate) or 0.03 mL (384-well plate) of Depolarization Buffer (DB), which is 2× the final assay concentration, to the cell plate.

T1 sequence (Q00975 whole entry): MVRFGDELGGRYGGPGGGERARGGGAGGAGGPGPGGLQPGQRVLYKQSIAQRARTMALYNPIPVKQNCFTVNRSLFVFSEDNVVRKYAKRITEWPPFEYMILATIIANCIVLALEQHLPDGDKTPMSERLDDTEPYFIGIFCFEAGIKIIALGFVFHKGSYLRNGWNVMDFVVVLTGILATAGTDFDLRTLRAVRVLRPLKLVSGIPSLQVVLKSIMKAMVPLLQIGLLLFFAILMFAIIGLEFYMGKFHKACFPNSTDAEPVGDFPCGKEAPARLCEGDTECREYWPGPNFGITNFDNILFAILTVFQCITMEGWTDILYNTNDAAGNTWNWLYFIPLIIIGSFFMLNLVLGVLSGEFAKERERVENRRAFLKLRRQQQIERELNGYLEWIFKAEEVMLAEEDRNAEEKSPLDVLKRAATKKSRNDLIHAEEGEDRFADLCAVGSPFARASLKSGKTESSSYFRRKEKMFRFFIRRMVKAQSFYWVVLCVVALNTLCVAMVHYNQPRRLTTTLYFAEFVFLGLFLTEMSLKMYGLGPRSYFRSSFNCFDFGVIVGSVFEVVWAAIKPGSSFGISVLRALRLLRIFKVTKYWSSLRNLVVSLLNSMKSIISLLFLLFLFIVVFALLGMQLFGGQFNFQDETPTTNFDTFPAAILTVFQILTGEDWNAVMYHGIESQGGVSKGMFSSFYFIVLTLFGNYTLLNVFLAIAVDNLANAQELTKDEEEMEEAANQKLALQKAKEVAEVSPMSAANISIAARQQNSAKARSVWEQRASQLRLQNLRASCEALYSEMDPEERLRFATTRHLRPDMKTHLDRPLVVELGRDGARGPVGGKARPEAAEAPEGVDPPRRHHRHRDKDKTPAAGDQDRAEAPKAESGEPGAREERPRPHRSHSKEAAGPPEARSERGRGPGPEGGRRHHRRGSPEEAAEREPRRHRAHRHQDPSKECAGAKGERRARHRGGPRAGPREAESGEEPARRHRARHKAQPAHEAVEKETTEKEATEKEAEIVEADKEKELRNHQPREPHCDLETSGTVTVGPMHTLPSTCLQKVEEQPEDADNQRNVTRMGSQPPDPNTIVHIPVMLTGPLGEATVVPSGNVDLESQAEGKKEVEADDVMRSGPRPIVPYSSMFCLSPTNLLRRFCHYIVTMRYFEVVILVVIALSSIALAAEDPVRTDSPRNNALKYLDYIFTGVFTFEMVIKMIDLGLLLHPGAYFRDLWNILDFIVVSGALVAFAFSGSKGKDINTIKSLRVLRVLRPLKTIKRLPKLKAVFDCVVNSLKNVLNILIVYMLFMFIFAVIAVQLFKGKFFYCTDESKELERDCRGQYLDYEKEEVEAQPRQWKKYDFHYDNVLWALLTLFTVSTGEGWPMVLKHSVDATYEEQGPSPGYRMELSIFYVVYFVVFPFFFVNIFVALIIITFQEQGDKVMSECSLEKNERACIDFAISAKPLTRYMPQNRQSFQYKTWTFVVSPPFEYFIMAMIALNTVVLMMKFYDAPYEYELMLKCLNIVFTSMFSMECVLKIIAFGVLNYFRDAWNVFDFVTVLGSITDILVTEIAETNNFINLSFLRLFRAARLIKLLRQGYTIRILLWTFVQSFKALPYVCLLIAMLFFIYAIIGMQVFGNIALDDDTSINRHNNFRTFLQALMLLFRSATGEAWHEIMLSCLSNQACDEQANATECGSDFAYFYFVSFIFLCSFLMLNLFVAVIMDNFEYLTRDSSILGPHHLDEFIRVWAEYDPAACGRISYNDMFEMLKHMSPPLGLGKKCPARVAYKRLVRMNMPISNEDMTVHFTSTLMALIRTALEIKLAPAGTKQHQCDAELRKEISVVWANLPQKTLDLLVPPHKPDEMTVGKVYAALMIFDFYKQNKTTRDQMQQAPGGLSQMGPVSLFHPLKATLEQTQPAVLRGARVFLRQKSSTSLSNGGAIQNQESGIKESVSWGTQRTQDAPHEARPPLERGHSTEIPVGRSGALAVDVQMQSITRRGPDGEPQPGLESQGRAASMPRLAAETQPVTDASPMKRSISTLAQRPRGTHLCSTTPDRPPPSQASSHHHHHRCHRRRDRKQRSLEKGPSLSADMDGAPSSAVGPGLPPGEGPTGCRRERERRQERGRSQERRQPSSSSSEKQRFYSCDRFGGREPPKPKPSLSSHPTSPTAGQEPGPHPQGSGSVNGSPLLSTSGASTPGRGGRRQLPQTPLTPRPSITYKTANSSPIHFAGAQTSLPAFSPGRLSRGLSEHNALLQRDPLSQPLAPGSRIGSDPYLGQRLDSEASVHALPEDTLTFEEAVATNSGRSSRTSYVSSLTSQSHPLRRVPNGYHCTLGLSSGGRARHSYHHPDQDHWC
T1 sequence (P54289 25-1103 partner): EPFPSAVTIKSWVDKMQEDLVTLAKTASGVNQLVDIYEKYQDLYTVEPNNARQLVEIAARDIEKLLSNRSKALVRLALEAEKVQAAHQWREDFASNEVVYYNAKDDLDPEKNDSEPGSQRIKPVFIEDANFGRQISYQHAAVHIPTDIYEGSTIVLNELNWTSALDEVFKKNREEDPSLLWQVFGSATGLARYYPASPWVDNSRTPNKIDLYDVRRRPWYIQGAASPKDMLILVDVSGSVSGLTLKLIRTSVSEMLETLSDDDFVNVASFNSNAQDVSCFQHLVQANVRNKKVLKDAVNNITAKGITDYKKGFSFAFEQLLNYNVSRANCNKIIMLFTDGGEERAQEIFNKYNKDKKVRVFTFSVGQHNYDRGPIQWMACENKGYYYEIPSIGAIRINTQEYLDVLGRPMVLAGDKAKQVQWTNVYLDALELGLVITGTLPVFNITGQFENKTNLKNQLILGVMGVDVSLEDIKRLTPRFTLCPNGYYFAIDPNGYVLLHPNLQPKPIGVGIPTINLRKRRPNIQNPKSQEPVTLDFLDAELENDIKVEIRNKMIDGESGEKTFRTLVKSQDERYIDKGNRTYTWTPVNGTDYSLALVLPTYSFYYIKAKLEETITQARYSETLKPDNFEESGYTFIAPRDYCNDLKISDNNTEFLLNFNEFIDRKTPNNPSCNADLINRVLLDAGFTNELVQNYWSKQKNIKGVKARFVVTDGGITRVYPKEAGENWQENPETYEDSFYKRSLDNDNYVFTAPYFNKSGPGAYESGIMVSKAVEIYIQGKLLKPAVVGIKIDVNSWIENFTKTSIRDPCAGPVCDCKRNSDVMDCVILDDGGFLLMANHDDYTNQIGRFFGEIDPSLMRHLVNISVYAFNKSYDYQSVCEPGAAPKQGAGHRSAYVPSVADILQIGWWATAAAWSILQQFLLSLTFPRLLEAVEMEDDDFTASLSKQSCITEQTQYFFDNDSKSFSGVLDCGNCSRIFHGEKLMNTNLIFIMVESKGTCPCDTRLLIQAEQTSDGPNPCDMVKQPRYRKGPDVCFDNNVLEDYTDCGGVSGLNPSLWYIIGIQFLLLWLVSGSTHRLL
T1 sequence (P54284 whole entry partner): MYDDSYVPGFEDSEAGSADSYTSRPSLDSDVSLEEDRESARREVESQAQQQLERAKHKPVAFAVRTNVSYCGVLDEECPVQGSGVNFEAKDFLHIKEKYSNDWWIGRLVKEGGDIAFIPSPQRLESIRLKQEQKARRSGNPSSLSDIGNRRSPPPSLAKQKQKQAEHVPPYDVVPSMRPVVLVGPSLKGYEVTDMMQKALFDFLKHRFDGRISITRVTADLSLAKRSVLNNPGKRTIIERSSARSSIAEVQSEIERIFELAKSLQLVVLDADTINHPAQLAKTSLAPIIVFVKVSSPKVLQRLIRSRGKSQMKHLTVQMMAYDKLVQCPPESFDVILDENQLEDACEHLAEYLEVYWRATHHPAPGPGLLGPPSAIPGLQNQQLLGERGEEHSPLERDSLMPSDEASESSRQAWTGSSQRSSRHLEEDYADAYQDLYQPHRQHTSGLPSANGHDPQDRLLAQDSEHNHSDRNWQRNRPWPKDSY

Compound	IC50	inhibition at 10 µM (10 μM compound)	inhibition at 30 µM (30 μM compound)	Cav 2.2 Activity % Inh at 10 μM (10 μM compound)	Cav 2.2 Activity % Inh at 30 μM (30 μM compound)
1-(2,6-di-tert-butylisonicotinimidamido)-N-((5-methylisoxazol-3-yl)methyl)cyclopentanecarboxamide [Compound 90]	77.2 nM			90.95%	98.53%
CC(C)(C)c1cc(C(=O)NC2(C(=O)NCc3nccs3)CC2)cc(C(C)(C)C)c1O [Compound 1, 3,5-di-tert-butyl-4-hydroxy-N-(1-(thiazol-2-ylmethylcarbamoyl)cyclopropyl)benzamide]	1210 nM	95.2%	104%		
Cc1cc(CNC(=O)C2(NC(=O)c3cc(C4CC4)cc(C4CC4)c3)CCCCC2)nn1C [Compound 6, 3,5-dicyclopropyl-N-(1-((1,5-dimethyl-1H-pyrazol-3-yl)methylcarbamoyl)cyclohexyl)benzamide]		54.7%	66%		
Cc1cc(CNC(=O)C2(NC(=O)c3cc(C(C)(C)C)c(O)c(C(C)(C)C)c3)CCCCC2)nn1C [Compound 8, 3,5-di-tert-butyl-N-(1-((1,5-dimethyl-1H-pyrazol-3-yl)methylcarbamoyl)cyclohexyl)-4-hydroxybenzamide]	129 nM	100%	99%		
CC(C)(C)c1cc(C(=O)NC2(C(=O)NCc3nccs3)CC2)cc(C(C)(C)C)n1 [Compound 10, 2,6-di-tert-butyl-N-(1-(thiazol-2-ylmethylcarbamoyl)cyclopropyl)isonicotinamide]	184 nM	95.7%	101%		
Cc1cnc(CNC(=O)C2(NC(=O)c3cc(C(C)(C)C)nc(C(C)(C)C)c3)CC2)cn1 [Compound 11, 2,6-di-tert-butyl-N-(1-((5-methylpyrazin-2-yl)methylcarbamoyl)cyclopropyl)isonicotinamide]	336 nM	91.9%	92.2%		
CC(C)(C)c1cc(C(=O)NC2(C(=O)NCc3nccs3)CCCCC2)cc(C(C)(C)C)c1O [Compound 13, 3,5-di-tert-butyl-4-hydroxy-N-(1-(thiazol-2-ylmethylcarbamoyl)cyclohexyl)benzamide]	34.1 nM	96.9%	99.8%		
CC(C)(C)c1cc(C(=O)NC2(C(=O)NCc3ccc(S(C)(=O)=O)cc3)CCOCC2)cc(C(C)(C)C)c1O [Compound 14, 4-(3,5-di-tert-butyl-4-hydroxybenzamido)-N-(4-(methylsulfonyl)benzyl)tetrahydro-2H-pyran-4-carboxamide]		80.7%	81.9%		
CC(C)(C)c1cc(C(=O)NC2(C(=O)NCc3cccc(S(C)(=O)=O)c3)CC2)cc(C(C)(C)C)c1O [Compound 16, 3,5-di-tert-butyl-4-hydroxy-N-(1-(3-(methylsulfonyl)benzylcarbamoyl)cyclopropyl)benzamide]		89.3%	93%		
COc1c(C(C)(C)C)cc(CC(=O)NC2(C(=O)NCc3ccccc3)CCCCC2)cc1C(C)(C)C [Compound 17, N-benzyl-1-(2-(3,5-di-tert-butyl-4-methoxyphenyl)acetamido)cyclohexanecarboxamide]		48.2%	90.6%		
COc1ccc(CNC(=O)C2(NC(=O)Cc3cc(C(C)(C)C)c(OC)c(C(C)(C)C)c3)CCCCC2)cc1 [Compound 18, 1-(2-(3,5-di-tert-butyl-4-methoxyphenyl)acetamido)-N-(4-methoxybenzyl)cyclohexanecarboxamide]		40.7%	34.5%		
CC(C)(C)c1cc(C(=O)NC2(C(=O)Nc3nc4ccccc4[nH]3)CC2)cc(C(C)(C)C)n1 [Compound 19, N-(1-(1H-benzo[d]imidazol-2-ylcarbamoyl)cyclopropyl)-2,6-di-tert-butylisonicotinamide]		60.3%			
CC(C)(C)c1cc(C(=O)NC2(C(=O)Nc3ccccn3)CC2)cc(C(C)(C)C)n1 [Compound 20, 2,6-di-tert-butyl-N-(1-(pyridin-2-ylcarbamoyl)cyclopropyl)isonicotinamide]	102 nM	100%			
CN(C)Cc1ccc(CNC(=O)C2(NC(=O)c3cc(C(C)(C)C)nc(C(C)(C)C)c3)CCOCC2)cc1 [Compound 23, 2,6-di-tert-butyl-N-(4-(4-((dimethylamino)methyl)benzylcarbamoyl)tetrahydro-2H-pyran-4-yl)isonicotinamide]		87.4%			
CC(C)(C)c1cc(C(=O)NC2(C(=O)NCc3ccc(CN4CCOCC4)cc3)CCOCC2)cc(C(C)(C)C)n1 [Compound 24, 2,6-di-tert-butyl-N-(4-(4-(morpholinomethyl)benzylcarbamoyl)tetrahydro-2H-pyran-4-yl)isonicotinamide]	767 nM	79.2%			
CN(C)c1ccccc1CNC(=O)C1(NC(=O)c2cc(C(C)(C)C)nc(C(C)(C)C)c2)CCOCC1 [Compound 26, 2,6-di-tert-butyl-N-(4-(2-(dimethylamino)benzylcarbamoyl)tetrahydro-2H-pyran-4-yl)isonicotinamide]		49%			

Second part, led by results:

IC50	inhibition at 10 µM (10 μM compound)	inhibition at 30 µM (30 μM compound)	Compound	Cav 2.2 Activity % Inh at 10 μM (10 μM compound)	Cav 2.2 Activity % Inh at 30 μM (30 μM compound)
1410 nM	99%	104%	Cc1cc(CNC(=O)C2(NC(=O)c3cc(C(C)(C)C)c(O)c(C(C)(C)C)c3)CC2)nn1C [Compound 2, 3,5-di-tert-butyl-N-(1-((1,5-dimethyl-1H-pyrazol-3-yl)methylcarbamoyl)cyclopropyl)-4-hydroxybenzamide]		
1620 nM	89.8%	98.8%	Cc1cnc(CNC(=O)C2(NC(=O)c3cc(C(C)(C)C)c(O)c(C(C)(C)C)c3)CC2)cn1 [Compound 3, 3,5-di-tert-butyl-4-hydroxy-N-(1-((5-methylpyrazin-2-yl)methylcarbamoyl)cyclopropyl)benzamide]		
355 nM	68%	76%	CC(C)(C)c1cc(C(=O)NC2(C(=O)Nc3ccccn3)CC2)cc(C(C)(C)C)c1O [Compound 4, 3,5-di-tert-butyl-4-hydroxy-N-(1-(pyridin-2-ylcarbamoyl)cyclopropyl)benzamide]		
127 nM	94.6%	96.4%	Cc1cnc(CNC(=O)C2(NC(=O)c3cc(C(C)(C)C)c(O)c(C(C)(C)C)c3)CCCCC2)cn1 [Compound 5, 3,5-di-tert-butyl-4-hydroxy-N-(1-((5-methylpyrazin-2-yl)methylcarbamoyl)cyclohexyl)benzamide]		
128 nM	99.3%	102%	CN(C)c1ccc(CNC(=O)C2(NC(=O)c3cc(C(C)(C)C)c(O)c(C(C)(C)C)c3)CCCCC2)cc1 [Compound 7, 3,5-di-tert-butyl-N-(1-(4-(dimethylamino)benzylcarbamoyl)cyclohexyl)-4-hydroxybenzamide]		
	45.7%	53.4%	Cc1cc(CNC(=O)C2(NC(=O)c3cc(C(C)(C)C)nc(C(C)(C)C)c3)CC2)no1 [Compound 9, 2,6-di-tert-butyl-N-(1-((5-methylisoxazol-3-yl)methylcarbamoyl)cyclopropyl)isonicotinamide]		
55 nM	98.6%	101%	Cc1cc(CNC(=O)C2(NC(=O)c3cc(C(C)(C)C)c(O)c(C(C)(C)C)c3)CCCCC2)no1 [Compound 12, 3,5-di-tert-butyl-4-hydroxy-N-(1-((5-methylisoxazol-3-yl)methylcarbamoyl)cyclohexyl)benzamide]		
	48.2%	65.9%	COc1c(C(C)(C)C)cc(CC(=O)NC2(C(=O)NCc3cccc(C(F)(F)F)c3)CCCCC2)cc1C(C)(C)C [Compound 15, 1-(2-(3,5-di-tert-butyl-4-methoxyphenyl)acetamido)-N-(3-(trifluoromethyl)benzyl)cyclohexanecarboxamide]		
143 nM	97.1%		CC(C)(C)c1cc(C(=O)NC2(C(=O)NCc3ccccn3)CC2)cc(C(C)(C)C)n1 [Compound 21, 2,6-di-tert-butyl-N-(1-(pyridin-2-ylmethylcarbamoyl)cyclopropyl)isonicotinamide]		
402 nM	95.1%		COc1c(C(C)(C)C)cc(C(=O)NC2(C(=O)NCc3cnc(C)cn3)CCN(C(=O)OC(C)(C)C)CC2)cc1C(C)(C)C [Compound 22, tert-butyl 4-(3,5-di-tert-butyl-4-methoxybenzamido)-4-((5-methylpyrazin-2-yl)methylcarbamoyl)piperidine-1-carboxylate]		
87.4 nM	70.5%		CN(C)c1cccc(CNC(=O)C2(NC(=O)c3cc(C(C)(C)C)nc(C(C)(C)C)c3)CCOCC2)c1 [Compound 25, 2,6-di-tert-butyl-N-(4-(3-(dimethylamino)benzylcarbamoyl)tetrahydro-2H-pyran-4-yl)isonicotinamide]		
